Data published in PMC6563049, “Radiosynthesis of (R,S)‐[^18F]GE387: A Potential PET Radiotracer for Imaging Translocator Protein 18 kDa (TSPO) with Low Binding Sensitivity to the Human Gene Polymorphism rs6971” (Chemmedchem, 2019).
Read-outs that look alike come from different tables or passages of the source.

Experiments:
TSPO A147T [1] = assay: Radioligand ([^3H]1) displacement binding on membranes of HEK cells stably transfected with A147T TSPO; parameters: species or system human; settings: for Ratio LAB/HAB: Ki at A147T TSPO / Ki at wild-type TSPO
Protocol: (§1) Binding affinities were measured as per our published protocol.21 Briefly, an Ultra‐Turrax homogeniser was used to prepare membranes from HEK cells stably transfected with wild‐type and A147T TSPO. […] Reactions were terminated by filtration through a 96‐well glass‐fibre filter plate (Millipore), and washed eight times with ice‐cold 50 mM Tris⋅HCl. […] Data were analysed using GraphPad Prism 6.0, and a four‐parameter nonlinear regression curve fit was used to calculate K i values. Data are expressed as the mean±SEM from at least three independent experiments.

[2] = In vivo PET imaging of the brain in healthy rats; settings: healthy male Wistar rats, i.v. tracer injection, 60 min acquisition, n=2
Protocol: The time–activity curve indicates distribution of radioactivity in the brain, albeit in a modest amount as the investigated animals were healthy.
Male Wistar rats (n=2; weight: 230 and 302 g) were obtained from Charles River Laboratories, UK. The rats were housed in Techniplast 2000P IVC cages on a layer of Aspen bedding in a room with constant temperature (21±2 °C) and fixed 12 h light–dark regime (lights on at 7:00 am). Food and water were available ad libitum. After arrival, the rats were allowed to acclimatise for at least seven days. This research was regulated under the Animals (Scientific Procedures) Act 1986 Amendment Regulations 2012 following ethical review by the University of Cambridge Animal Welfare and Ethical Review Body (AWERB).
Prior to scanning, the animals were anaesthetised using isofluorane at a concentration of 5 % in O2, and anaesthesia was maintained at 1.5–2.5 % isofluorane in O2. The femoral vein was cannulated for tracer injection. […]
Three‐dimensional regions of interest (ROIs) were drawn over the whole brain on an MRI template using PMOD software (version 3.2; PMOD technologies, Zurich, Switzerland). […] The results were expressed as dimensionless standardised uptake values (SUV=[(tissue activity)×(body weight)]/injected dose). SUVs were calculated assuming a specific gravity of 1 g mL^−1 for brain tissue.

rat heart TSPO = target: rat heart TSPO; parameters: method as in earlier work; settings: read-out: affinity, rat heart TSPO assay; cited from earlier work
TSPO A147T [3] = target: T1, TSPO A147T (Homo sapiens, UniProt P30536); assay: Radioligand ([^3H]1) displacement binding on membranes of HEK cells stably transfected with A147T TSPO
T1 construct: expressed in transfected cells; host or cells: HEK cells, stably transfected; membranes
Protocol: as §1

human TSPO wild‐type = target: T2, human TSPO wild‐type (Homo sapiens, UniProt P30536); assay: Radioligand ([^3H]1) displacement binding on membranes of HEK cells stably transfected with wild-type TSPO; settings: HEK cell membranes, [^3H]1 10 nM, 4 °C, 90 min; mean±SEM, n=3; read-out: Ki (nM) at WT (Ala/Ala) HAB
T2 construct: expressed in transfected cells; host or cells: HEK cells, stably transfected; membranes
Protocol: Binding affinities were measured as per our published protocol.21 Briefly, an Ultra‐Turrax homogeniser was used to prepare membranes from HEK cells stably transfected with wild‐type and A147T TSPO. […] Reactions were terminated by filtration through a 96‐well glass‐fibre filter plate (Millipore), and washed eight times with ice‐cold 50 mM Tris⋅HCl. Microscint 0 was added to the dry filters, and radioactivity read in a Microbeta^2 2450 Microplate Counter (PerkinElmer). Data were analysed using GraphPad Prism 6.0, and a four‐parameter nonlinear regression curve fit was used to calculate K i values. Data are expressed as the mean±SEM from at least three independent experiments.

[4] = parameters: method as in PMID 26697963, PMID 26551697, PMID 29114179; settings: cited from earlier work
TSPO [5] = settings: cited from earlier work
TSPO A147T [6] = system: TSPO A147T; parameters: method as in PMID 30108706; settings: cited from earlier work
TSPO [7] = system: TSPO; parameters: method as in PMID 22244939; settings: rats; cited from earlier work

T2 sequence (P30536 whole entry T147A): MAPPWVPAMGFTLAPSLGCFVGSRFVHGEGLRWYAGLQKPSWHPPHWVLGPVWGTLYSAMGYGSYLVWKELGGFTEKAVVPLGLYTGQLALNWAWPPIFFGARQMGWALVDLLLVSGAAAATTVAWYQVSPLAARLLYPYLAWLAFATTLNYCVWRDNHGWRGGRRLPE
T1 sequence (P30536 whole entry, stated change not applied): as the sequence (P30536 whole entry T147A) above, with A147T counted along it

**Q.** With `CCN(Cc1ccccc1)C(=O)C1CCCc2c1c1c(OC)cccc1n2CCF` (racemic) [compound 6, N ‐Benzyl‐N‐ethyl‐9‐(2‐fluoroethyl)‐5‐methoxy‐2,3,4,9‐tetrahydro‐1H‐carbazole‐4‐carboxamide] as the compound, how does the “sensitivity to the human gene polymorphism rs6971” value (TSPO A147T [1]; conclusion from wild-type versus A147T binding) read?
**A.** low sensitivity

**Q.** For `CCN(Cc1ccccc1)C(=O)C1CCCc2c1c1c(OC)cccc1n2CC[18F]` (racemic) [racemic [^18F]6], which “entry of radioactivity into the brain (PET)” value [2] is on record?
**A.** enters the brain

**Q.** For `CCN(Cc1ccccc1)C(=O)[C@@H]1CCCc2c1c1c(OC)cccc1n2CCF` [(R)-6, N ‐Benzyl‐N‐ethyl‐9‐(2‐fluoroethyl)‐5‐methoxy‐2,3,4,9‐tetrahydro‐1H‐carbazole‐4‐carboxamide], which Ki (rat heart TSPO) is on record?
**A.** 0.022 µM

**Q.** Which Ki (TSPO A147T [3]; HEK cell membranes, [^3H]1 10 nM, 4 °C, 90 min, mean±SEM, n=3, read-out: Ki (nM) at Ala147Thr LAB) does the source give for `CCN(CC)C(=O)[C@H]1CCCc2c1c1c(OC)cccc1n2CCF` [(S)-5] here?
**A.** 58.3 ± 6.4 nM

**Q.** What about the “Ratio LAB/HAB” value (TSPO A147T [1]) of the same compound?
**A.** 5.1

**Q.** And the Ki (human TSPO wild‐type)?
**A.** 11.3 ± 0.6 nM

**Q.** For `CCN(Cc1ccccc1)C(=O)[C@H]1CCCc2c1c1c(OC)cccc1n2CCF` [(S)-6, N ‐Benzyl‐N‐ethyl‐9‐(2‐fluoroethyl)‐5‐methoxy‐2,3,4,9‐tetrahydro‐1H‐carbazole‐4‐carboxamide], which Ki (TSPO A147T [3]) is on record?
**A.** 47.3 ± 7 nM

**Q.** What about the “Ratio LAB/HAB” value (TSPO A147T [1]) of the same compound?
**A.** 1.3

**Q.** What about the Ki (human TSPO wild‐type) of the same compound?
**A.** 36.3 ± 6.9 nM

**Q.** What about the Ki (rat heart TSPO) of the same compound?
**A.** 0.00104 µM

**Q.** For `CC[C@@H](C)N(C)C(=O)c1cc2ccccc2c(-c2ccccc2Cl)n1` [[^11C]1, R‐1‐(2‐chlorophenyl)‐N‐methyl‐N‐(1‐methylpropyl)‐3‐isoquinoline carboxamide], which brain permeability [4] is on record?
**A.** low brain permeability

**Q.** For `CC[C@@H](C)N(C)C(=O)c1cc2ccccc2c(-c2ccccc2Cl)n1` [[^11C]1] [R‐1‐(2‐chlorophenyl)‐N‐methyl‐N‐(1‐methylpropyl)‐3‐isoquinoline carboxamide], which “affinity for TSPO” value (TSPO [5]; selective antagonist of TSPO) is on record?
**A.** 9.3 nM

**Q.** Which results are given for `CCN(CC)C(=O)C1CCCc2c1c1c(OC)cccc1n2CC[18F]` (stereo not shown) [[^18F]5]?
**A.** binding affinity ratio LABs/HABs (TSPO A147T [6]): 5.1; affinity for TSPO (in words) (TSPO [5]): good affinity; brain uptake (TSPO [7]): good brain uptake; specific binding (TSPO [7]): high specific binding
